Test system: SE-spezifischer rosettenbildender Zellen
Experiment: Rosette test (SE-specific rosettes)
Type: in vivo, Maus (Inzuchtstamm CBA)
Conditions: oral administration
Source text: Der Nachweis immunstimulierender Effekte wurde weiterhin an der Maus (Inzuchtstamm CBA) und u. a. mit Hilfe folgender Nachweismethoden geführt: • Plaque-Test zum Nachweis von SE-spezifischen IgM- und IgG-PBZ, • Rosettentest.
Aus den Werten wird deutlich, daß die Verbindungen der allgemeinen Formel I einen gut nachweisbaren Effekt auf die Effektor-T-Lymphozyten-abhängige verzögerte Uberempfindlichkeit haben. Kontaktdermatitis-Werte ab 120 (≙ 20 % Steigerung gegenüber der Kontrolle) bzw. unter 80 werden als Nachweis eines stimulatorischen bzw. suppressorischen Effektes angesehen. Antikörpertiter-Differenzen von >+1 bzw. <-1 verdeutlichen den stimulatorischen bzw. suppressorischen Effekt der Substanzen auf die humorale Immunantwort. 2. Untersuchungen zur immunstimulierenden Wirkung • 2.1 Plaque-Test zum Nachweis von SE-spezifischen IgM- und IgG-PBZ Zur Prüfung immunstimulierender Effekte wurde u. a. auch der Einfluß von Verbindungen der allgemeinen Formel I auf die humorale Immunantwort an Mäusen des Inzuchtstammes CBA und mittels Hämolyse-Plaque-Test (HPT) untersucht. Diese Technik erlaubt die quantitative und getrennte Erfassung IgM- und IgG-Antikörper produzierender Zellen (= Plaque bildende Zellen; PBZ). Die Immunisierung mit Schaferythrozyten (SE) erfolgte am Tag 0, die Substanzapplikation (Tagesdosis 1.10^-5 mol/kg Körpermasse; peroral) an den Tagen -1 bis +3 (zur Erfassung der IgM-PBZ) bzw. an den Tagen +1 bis +5 (zur Erfassung der IgG-PBZ). • 2.2 Ergebnisse: Durch tägliche und über 5 Tage gehende Gabe von 2,0 mg der Verbindung gemäß Beispiel 1 pro kg Körpermasse konnte die Zahl der IgM-PBZ auf einen Durchschnittswert von 352 % im Vergleich zur Kontrolle (100 %) gesteigert werden. Die gleiche Form der Behandlung führte zu einer Erhöhung der IgG-PBZ auf 497 % (Kontrolle: 100 %). In beiden Fällen erwies sich die Differenz zur Kontrolle im t-Test mit p < 0,001 als signifikant. […]

Row | SMILES | SE-spezifischer rosettenbildender Zellen
1 | O=c1[nH]c2ccccc2c(=O)n1CCCS [Beispiel 6, 3-(3-Mercaptopropyl)-chinazolin-2,4(1H,3H)-dion] | signifikante Förderung
2 | COc1cc2[nH]c(=O)n(CC(C)S)c(=O)c2cc1OC (centres unmarked) [Beispiel 14e, 6,7-Dimethoxy-3-(2-mercaptopropyl)-chinazolin-2,4(1H,3H)-dion] | signifikante Förderung

Test system: Kontaktüberempfindlichkeit vom verzögerten Typ (Effektor-T-Lymphozyten-Aktivität)
Experiment: Percutaneous test for contact hypersensitivity after DNFB immunisation
Type: in vivo, Meerschweinchen (Albino-Koloniezucht)
Conditions: Sensibilisierungsgrad versus control group; 2 mg/kg daily peroral, day +1 to +6; screening values; from 120 stimulatory, below 80 suppressive
Source text: Der Nachweis einer immunregulatorischen Wirksamkeit wurde am Meerschweinchen (Albino-Koloniezucht) und u. a. mit Hilfe folgender Techniken geführt: • Perkutaner Test zum Nachweis einer Kontaktüberempfindlichkeit vom verzögerten Typ (Effektor-T-Lymphozyten-Aktivität), • Takatsy-Test zum Nachweis DNP-spezifischer Serumantikörper (humorale Immunantwort).
Der Nachweis der antiviralen Wirksamkeit erfolgte in vitro an Hühnerembryonalzellen mit Vertretern verschiedener Virusgruppen. 1. Untersuchungen zur immunregulatorischen Wirksamkeit 1.1 Perkutaner Test zum Nachweis einer Kontaktüberempfindlichkeit Die epikutane Applikation von Dinitrofluorbenzol (DNFB) führt beim Meerschweinchen und bei der Maus zur Entwicklung einer verzögerten Überempfindlichkeit, eines Immunstatus, der an die klonale Vermehrung TNP-spezifischer T-Lymphozyten (TDTH-Ly) gebunden ist. Erfolgt nach einer Latenzperiode von mindestens 5 Tagen eine erneute DNFB-Applikation, kommt es zu einer Freisetzung von Lymphokinen durch Reaktion mit den TDTH-Ly dieses Hautbereiches und dadurch zu einer lokal begrenzten Entzündungsreaktion. Sieben Tage nach der Immunisierung mit 1 %igem DNFB wurden die Flanken der Versuchstiere enthaart und durch Aufbringen je eines Tropfens 0,5 %, 0,1 %, 0,05 %, 0,025 % und 0,01 %iger DNFB-Lösung getestet. Die noch positive Konzentration ist dem Grad der Sensibilisierung umgekehrt proportional. Die Testergebnisse ergeben sich aus Stärke und Anzahl der positiven Hautreaktionen, der Stimulierungsindex (SI) aus dem Vergleich der Test- und Kontrolltiere. Die Substanzbehandlung erfolgte peroral. Mittels Schlundsonde wurde eine tägliche Dosis von 2 mg/kg Körpermasse als Suspension in Wasser gegeben. Behandlungsdauer: 1 Tag + 1 (ein Tag nach der Immunisierung) bis +6. Die Kontrolltiere erhielten nur die eingesetzte Lactose. 1.2 Takatsy-Test Nach Immunisierung mit Dinitrofluorbenzol (DNFB) kommt es beim Meerschweinchen auch zur Bildung DNP-spezifischer humoraler Antikörper, die bevorzugt der IgG1-Substanzklasse angehören. 14 Tage nach primärer epikutaner Applikation von DNFB wurde den Versuchstieren Blut durch Herzpunktion entnommen. Die Bestimmung der Antikörperkonzentration erfolgte nach einer von Takatsy beschriebenen Methode (Takatsy, G.: A new method for the preparation of serial dilutions in a quick and accurate way. Kiserletes Orvostudomany 2 (1950) 263 - 396). Als Indikatorzellen wurden TNP-beladene Schaferythrozyten verwendet (Kopplung nach Rittenberg und Pratt; Rittenberg, M. B. and Pratt, K. L.: Antitrinitrophenyl (TNP) plaque assay. Primary response of BALB/c mice to soluble and particulate immunogen. Proc. Soc. exp. Biol. Med., 132 (1969) 575 - 579). 1.3 Ergebnisse Sensibilisierungsgrad (%) und Serumantikörperkonzentration (AK-Titer-Differenz) gegenüber der jeweiligen Kontrollgruppe (Screening-Werte)
Aus den Werten wird deutlich, daß die Verbindungen der allgemeinen Formel I einen gut nachweisbaren Effekt auf die Effektor-T-Lymphozyten-abhängige verzögerte Uberempfindlichkeit haben. Kontaktdermatitis-Werte ab 120 (≙ 20 % Steigerung gegenüber der Kontrolle) bzw. unter 80 werden als Nachweis eines stimulatorischen bzw. suppressorischen Effektes angesehen. Antikörpertiter-Differenzen von >+1 bzw. <-1 verdeutlichen den stimulatorischen bzw. suppressorischen Effekt der Substanzen auf die humorale Immunantwort. 2. Untersuchungen zur immunstimulierenden Wirkung • 2.1 Plaque-Test zum Nachweis von SE-spezifischen IgM- und IgG-PBZ Zur Prüfung immunstimulierender Effekte wurde u. a. auch der Einfluß von Verbindungen der allgemeinen Formel I auf die humorale Immunantwort an Mäusen des Inzuchtstammes CBA und mittels Hämolyse-Plaque-Test (HPT) untersucht. Diese Technik erlaubt die quantitative und getrennte Erfassung IgM- und IgG-Antikörper produzierender Zellen (= Plaque bildende Zellen; PBZ). […]

Row | SMILES | Kontaktdermatitis (Kontrolle: 100) 24-Stunden-Reaktion [%] | Kontaktdermatitis (Kontrolle: 100) 48-Stunden-Reaktion [%]
3 | COc1cc2[nH]c(=O)n(CCS)c(=O)c2cc1OC [Beispiel 3, 3-(2-Mercaptoethyl)-6,7-dimethoxychinazolin-2,4(1H,3H)-dion] | 100 | –
4 | O=c1[nH]c2ccc(Br)cc2c(=O)n1CCS [Beispiel 5, 6-Brom-3-(2-mercaptoethyl)-chinazolin-2,4(1H,3H)-dion] | 150 | 120
5 | O=c1[nH]c2ccccc2c(=O)n1CCCS [Beispiel 6, 3-(3-Mercaptopropyl)-chinazolin-2,4(1H,3H)-dion] | 70 | 40
6 | CC(S)Cn1c(=O)[nH]c2ccccc2c1=O (centres unmarked) [Beispiel 7, 3-(2-Mercaptopropyl)-chinazolin-2,4(1H,3H)-dion] | 230 | –
7 | O=c1[nH]c2ccc(Cl)cc2c(=O)n1CCCS [Beispiel 8, 6-Chlor-3-(3-mercaptopropyl)-chinazolin-2,4(1H,3H)-dion] | 100 | 115
8 | Cc1ccc2[nH]c(=O)n(CCCS)c(=O)c2c1 [Beispiel 12, 6-Methyl-3-(3-mercaptopropyl)-chinazolin-2,4(1H,3H)-dion] | 120 | 130
9 | O=c1[nH]c2ccc(Cl)cc2c(=O)n1CCS [Beispiel 13, 6-Chlor-3-(2-mercaptoethyl)-chinazolin-2,4(1H,3H)-dion] | 120 | 130
10 | Cc1ccc2[nH]c(=O)n(CCS)c(=O)c2c1 [Beispiel 14a, 6-Methyl-3-(2-mercaptoethyl)-chinazolin-2,4(1H,3H)-dion] | 60 | 60
11 | O=c1[nH]c2ccc(Br)cc2c(=O)n1CCCS [Beispiel 14b, 6-Brom-3-(3-mercaptopropyl)-chinazolin-2 4(1H 3H)-dion] | 105 | 100
12 | O=c1[nH]c2ccc(F)cc2c(=O)n1CCS [Beispiel 14c, 6-Fluor-3-(2-mercaptoethyl)-chinazolin-2,4(1H 3H)-dion] | 90 | 105
13 | O=c1[nH]c2ccc(F)cc2c(=O)n1CCCS [Beispiel 14d, 6-Fluor-3-(3-mercaptopropyl)-chinazolin-2,4(1H,3H)-dion] | 100 | 150
14 | COc1cc2[nH]c(=O)n(CC(C)S)c(=O)c2cc1OC (centres unmarked) [Beispiel 14e, 6,7-Dimethoxy-3-(2-mercaptopropyl)-chinazolin-2,4(1H,3H)-dion] | 100 | –

— EP0454060B1, “3-(Mercaptoalkyl)-quinazoline-2,4(1H,3H)-diones, processes for their preparation, and pharmaceutical compositions” (priority 1990, dated 1991)
